According to ChEMBL document CHEMBL5233245, “Monocarboxylate transporter 1 and 4 inhibitors as potential therapeutics for treating solid tumours: A review with structure-activity relationship insights” (Eur J Med Chem, 2020):
Each block holds one compound with its values, some of them ahead of it.

What was measured:
[1] = system: MDA-MB-231; test: Cytotoxicity against human MDA-MB-231 cells assessed as inhibition of cell growth; assay type: functional, cell-based
[2] = system: Mus musculus; test: Antitumor activity against human WiDr cells xenografted in CD-1 mouse assessed as reduction in tumor growth at 25 mg/kg,ip qd measured after 16 days; assay type: functional; parameters: scale not given: the % may be the effect or the level left; settings: time 16 day
[3] = target: T1, Monocarboxylate transporter 4 (Homo sapiens, UniProt O15427); test: Binding affinity to human MCT4 expressed in Xenopus laevis oocytes assessed as inhibition constant in presence of [14C]lactate by fluorescence assay
T1 sequence (O15427 whole entry): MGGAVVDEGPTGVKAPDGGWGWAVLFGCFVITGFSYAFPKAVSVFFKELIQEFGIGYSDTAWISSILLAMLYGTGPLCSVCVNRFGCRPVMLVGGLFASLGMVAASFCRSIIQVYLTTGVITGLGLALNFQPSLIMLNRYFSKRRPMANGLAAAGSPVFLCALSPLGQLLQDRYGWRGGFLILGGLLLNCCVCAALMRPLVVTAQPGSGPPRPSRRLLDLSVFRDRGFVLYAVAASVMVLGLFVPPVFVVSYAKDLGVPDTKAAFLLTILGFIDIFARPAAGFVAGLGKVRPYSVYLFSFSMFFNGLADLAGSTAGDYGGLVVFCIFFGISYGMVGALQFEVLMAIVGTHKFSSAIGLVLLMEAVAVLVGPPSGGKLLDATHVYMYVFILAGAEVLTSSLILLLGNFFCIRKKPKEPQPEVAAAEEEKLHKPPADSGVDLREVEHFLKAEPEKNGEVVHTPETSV

[4] = target: T2, Monocarboxylate transporter 1 (Rattus norvegicus, UniProt P53987); test: Inhibition of MCT1 in rat Brain-like endothelial cells incubated for 15 mins in presence of [14C]lactate by […]; assay type: cell-based
T2 sequence (P53987 whole entry): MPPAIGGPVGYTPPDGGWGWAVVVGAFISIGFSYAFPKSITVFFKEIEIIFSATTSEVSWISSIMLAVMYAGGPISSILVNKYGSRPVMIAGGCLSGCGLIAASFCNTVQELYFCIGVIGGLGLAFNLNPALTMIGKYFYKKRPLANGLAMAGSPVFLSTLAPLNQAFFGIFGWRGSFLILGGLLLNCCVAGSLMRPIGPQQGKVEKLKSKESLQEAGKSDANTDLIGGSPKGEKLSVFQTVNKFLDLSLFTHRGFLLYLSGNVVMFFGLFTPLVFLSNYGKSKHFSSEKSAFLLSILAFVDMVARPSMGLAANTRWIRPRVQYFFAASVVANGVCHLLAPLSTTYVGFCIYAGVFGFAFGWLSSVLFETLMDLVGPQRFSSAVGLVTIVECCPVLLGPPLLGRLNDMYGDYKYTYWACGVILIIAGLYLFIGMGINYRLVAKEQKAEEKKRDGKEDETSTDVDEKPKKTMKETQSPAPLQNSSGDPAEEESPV

[5] = target: T1, Monocarboxylate transporter 4; test: Inhibition of MCT4 (unknown origin)
[6] = target: T3, Monocarboxylate transporter 1 (Homo sapiens, UniProt P53985); test: Inhibition of MCT1 (unknown origin)
T3 sequence (P53985 whole entry): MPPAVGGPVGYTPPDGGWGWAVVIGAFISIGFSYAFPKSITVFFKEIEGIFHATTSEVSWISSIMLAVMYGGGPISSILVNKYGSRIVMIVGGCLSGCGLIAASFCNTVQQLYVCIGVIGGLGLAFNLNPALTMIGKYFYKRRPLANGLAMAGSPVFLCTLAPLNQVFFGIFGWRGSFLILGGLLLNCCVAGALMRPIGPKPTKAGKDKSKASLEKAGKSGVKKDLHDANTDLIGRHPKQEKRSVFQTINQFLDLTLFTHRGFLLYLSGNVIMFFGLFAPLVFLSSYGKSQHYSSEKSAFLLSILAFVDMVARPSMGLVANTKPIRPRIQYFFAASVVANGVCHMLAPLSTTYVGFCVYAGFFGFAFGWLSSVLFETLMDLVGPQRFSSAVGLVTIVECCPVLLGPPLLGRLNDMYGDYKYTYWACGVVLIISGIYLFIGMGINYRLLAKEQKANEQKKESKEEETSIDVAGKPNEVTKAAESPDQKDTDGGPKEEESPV

[7] = target: T4, Monocarboxylate transporter 2 (Rattus norvegicus, UniProt Q63344); test: Binding affinity to MCT2 in rat Erythrocyte assessed as inhibition constant; assay type: cell-based
T4 sequence (Q63344 whole entry): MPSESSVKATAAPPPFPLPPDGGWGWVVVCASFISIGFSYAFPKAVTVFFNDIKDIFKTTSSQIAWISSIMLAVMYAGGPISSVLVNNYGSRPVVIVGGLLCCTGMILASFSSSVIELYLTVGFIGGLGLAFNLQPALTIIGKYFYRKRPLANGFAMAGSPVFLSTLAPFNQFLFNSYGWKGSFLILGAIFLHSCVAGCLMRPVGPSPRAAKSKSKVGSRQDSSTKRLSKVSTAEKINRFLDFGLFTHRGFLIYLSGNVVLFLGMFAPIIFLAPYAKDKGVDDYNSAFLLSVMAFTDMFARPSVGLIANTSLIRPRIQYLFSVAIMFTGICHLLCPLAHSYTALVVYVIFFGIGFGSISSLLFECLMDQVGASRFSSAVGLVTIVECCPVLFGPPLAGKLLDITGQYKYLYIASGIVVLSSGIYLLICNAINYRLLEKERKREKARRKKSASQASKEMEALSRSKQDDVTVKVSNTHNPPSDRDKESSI

[8] = target: T2, Monocarboxylate transporter 1; test: Binding affinity to MCT1 in rat Erythrocyte assessed as inhibition constant; assay type: cell-based
[9] = system: Raji; test: Cytotoxicity against human Raji cells assessed as inhibition of cell growth by MTT assay; assay type: functional, cell-based
[10] = target: T3, Monocarboxylate transporter 1; test: Inhibition of MCT1 (unknown origin) assessed as reduction in [14C]lactate uptake incubated for 20 mins by liquid scintillation counting analysis
[11] = target: T2, Monocarboxylate transporter 1; test: Inhibition of MCT1 in rat Brain-like endothelial cells incubated for 15 mins in presence of [14C]lactic acid by scintillation counter assay; assay type: cell-based
[12] = system: Raji; test: Antiproliferative activity against human Raji cells assessed as inhibition of cell growth by MTT assay; assay type: functional, cell-based
[13] = target: T3, Monocarboxylate transporter 1; test: Binding affinity to MCT1 (unknown origin) assessed as inhibition constant

SMILES: COC(=O)[C@@](O)(CO)COC(=O)c1nn(-c2ccc(N(Cc3ccc(F)cc3)Cc3ccc(F)cc3)cc2)c2ccccc12
- IC50 [1]: 3020 nM

SMILES: COC(=O)[C@@](O)(CO)COC(=O)c1nn(-c2ccc(N(Cc3ccccc3)Cc3ccccc3)cc2)c2ccccc12
- IC50 [1]: 2330 nM

SMILES: CC(C)(C)[Si](Oc1ccc(/C=C(\C#N)C(=O)O)cc1)(c1ccccc1)c1ccccc1
- Activity [2]: 28%

SMILES: CC(C)(C)[Si](OCCOc1ccc(/C=C(\C#N)C(=O)O)cc1)(c1ccccc1)c1ccccc1
- Activity [2]: 28%

SMILES: N#C/C(=C\c1ccc(O)cc1)C(=O)O [alpha-CYANO-4-HYDROXYCINNAMIC ACID]
- IC50 [5]: > 150000 nM
- IC50 [6]: 100000 nM

SMILES: Cc1cc(=O)c2c(OCCCO)cc(OCc3ccc4ccccc4c3)cc2o1
- EC50 [9]: 1000 nM

SMILES: CC(C)c1cc(=O)c2c(OCCCO)cc(OCc3ccc4ccccc4c3)cc2o1
- EC50 [9]: 100 nM

SMILES: N#C/C(=C\c1cn(-c2ccccn2)c2ccccc12)C(=O)O
- IC50 [11]: > 1000 nM

SMILES: N#C/C(=C\c1ccc(OCCO)cc1)C(=O)O
- IC50 [4]: > 5000 nM

SMILES: CC(C)c1cc(=O)c2c(OCc3ccccc3CO)cc(OCc3ccc4ccccc4c3)cc2o1
- EC50 [9]: > 100000 nM

SMILES: N#C/C(=C\c1cn(-c2ccccc2)c2ccccc12)C(=O)O
- IC50 [11]: 12.8 nM

SMILES: CCCCCN(CCCCC)c1ccc(/C=C(\C#N)C(=O)O)c(OC)c1
- IC50 [10]: 34 nM

Further lines, results first:

- Ki [3]: 30200 nM
SMILES: CC(C)(OCc1nn(Cc2ccccc2)c2ccccc12)C(=O)O [BINDARIT]

- IC50 [4]: > 5000 nM
SMILES: N#C/C(=C\c1ccc(OCCBr)cc1)C(=O)O

- Ki [7]: < 10 nM
- Ki [8]: 2 nM
SMILES: Cc1n[nH]c(C)c1Cc1sc2c(c1C(=O)N1C[C@@H](O)CO1)c(=O)n(C)c(=O)n2CC(C)C

- IC50 [10]: 37 nM
SMILES: COc1cc(N(Cc2ccccc2)Cc2ccccc2)ccc1/C=C(\C#N)C(=O)O

- IC50 [10]: 48 nM
SMILES: COc1cc(N2CCCC2)ccc1/C=C(\C#N)C(=O)O

- IC50 [11]: 65.9 nM
SMILES: N#C/C(=C\c1cn(Cc2ccccc2)c2ccccc12)C(=O)O

- EC50 [12]: < 50 nM
SMILES: CC(C)Cn1c(=O)n(C)c(=O)c2nc(CCCCCO)c(COc3ccc4ccccc4c3)nc21

- IC50 [10]: 11 nM
SMILES: COc1cc(N(CC(C)C)CC(C)C)ccc1/C=C(\C#N)C(=O)O

- IC50 [10]: 25 nM
SMILES: COc1cc(N2CCCCC2)ccc1/C=C(\C#N)C(=O)O

- Ki [13]: 2 nM
SMILES: Cc1[nH]nc(C(F)(F)F)c1Cc1sc2c(c1C(=O)N1C[C@](C)(O)CO1)c(=O)n(C)c(=O)n2C(C)C [AZD3965]
